# Data as given in patent publication US8563542B2 (Cyclacel Limited, priority 2007, dated 2013).
# Molecular target: PLK1 (Homo sapiens, UniProt P53350)
# Experiment: PLK1 protein kinase assay (CDC25C phosphorylation, [γ-32P]-ATP)
# Format: biochemical
# Conditions: Table 2, PLK1 IC50; class symbols; read-out: PLK1 IC50
# Chain of PLK1 (P53350 whole entry): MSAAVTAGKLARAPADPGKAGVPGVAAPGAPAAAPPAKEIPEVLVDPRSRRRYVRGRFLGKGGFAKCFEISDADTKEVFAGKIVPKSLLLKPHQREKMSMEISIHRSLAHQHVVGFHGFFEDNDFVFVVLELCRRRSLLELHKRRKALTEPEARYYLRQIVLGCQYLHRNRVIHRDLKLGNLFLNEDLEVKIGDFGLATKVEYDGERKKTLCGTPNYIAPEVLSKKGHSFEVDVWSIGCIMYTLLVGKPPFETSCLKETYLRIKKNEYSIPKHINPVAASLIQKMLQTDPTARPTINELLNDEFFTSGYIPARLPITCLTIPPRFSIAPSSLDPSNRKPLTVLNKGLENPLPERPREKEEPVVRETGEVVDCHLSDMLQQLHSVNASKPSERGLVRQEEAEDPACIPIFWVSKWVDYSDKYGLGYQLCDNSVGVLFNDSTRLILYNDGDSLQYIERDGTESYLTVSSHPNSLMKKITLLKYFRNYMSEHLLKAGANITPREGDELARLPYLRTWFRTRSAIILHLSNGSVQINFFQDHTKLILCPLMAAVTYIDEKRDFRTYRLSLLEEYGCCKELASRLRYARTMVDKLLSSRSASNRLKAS
row,IC50 [µM],Structure (SMILES)
1,< 1,"COc1cc(C(=O)NC2CCCC2)ccc1Nc1ncc2c(n1)N(CC1CC1)CCC(=O)N2C [compound 248, N-Cyclopentyl-4-(9-cyclopropylmethyl-5-methyl-6-oxo-6,7,8,9-tetrahydro-5H-pyrimido[4,5-b][1,4]diazepin-2-ylamino)-3-methoxy-benzamide]"
2,< 1,"COc1cc(C(=O)NCc2cccn2C)ccc1Nc1ncc2c(n1)N(CC1CC1)CCC(=O)N2C [compound 249, 4-(9-Cyclopropylmethyl-5-methyl-6-oxo-6,7,8,9-tetrahydro-5H-pyrimido[4,5-b][1,4]diazepin-2-ylamino)-3-methoxy-N-(1-methyl-1H-pyrrol-2-ylmethyl)-benzamide]"
3,< 1,"COc1cc(C(=O)NC(C)(C)CN2CCCC2)ccc1Nc1ncc2c(n1)N(C1CCCC1)CC1(CC1)C(=O)N2C [compound 250, 4-(9-Cyclopentyl-5-methyl-6-oxo-6,7,8,9-tetrahydro-5H-pyrimido[4,5-b][1,4]diazepin-3,1′-cyclopropane-2-ylamino)-N-(1,1-dimethyl-2-pyrrolidin-1-yl-ethyl)-3-methoxy-benzamide]"
4,< 1,"COc1cc(C(=O)NC(C)(C)CN2CCCCC2)ccc1Nc1ncc2c(n1)N(C1CCCC1)CC1(CC1)C(=O)N2C [compound 251, 4-(9-Cyclopentyl-5-methyl-6-oxo-6,7,8,9-tetrahydro-5H-pyrimido[4,5-b][1,4]diazepin-3,1′-cyclopropane-2-ylamino)-N-(1,1-dimethyl-2-piperidin-1-yl-ethyl)-3-methoxy-benzamide]"
5,< 1,"COc1cc(C(=O)NC2CCN(Cc3ccccc3)CC2)ccc1Nc1ncc2c(n1)N(C1CCCC1)CC1(CC1)C(=O)N2C [compound 252, 4-(9-Cyclopentyl-5-methyl-6-oxo-6,7,8,9-tetrahydro-5H-spiro[pyrimido[4,5-b][1,4]diazepin-3,1′-cyclopropane]-2-ylamino)-3-methoxy-N-(1-benzylpiperidin-4-yl)-benzamide]"
6,< 0.1,"COc1cc(C(=O)NCC2CCN(C)CC2)ccc1Nc1ncc2c(n1)N(C1CCCC1)CC1(CC1)C(=O)N2C [compound 253, 4-(9-Cyclopentyl-5-methyl-6-oxo-6,7,8,9-tetrahydro-5H-pyrimido[4,5-b][1,4]diazepin-3,1′-cyclopropane-2-ylamino)-3-methoxy-N-(1-methyl-piperidin-4-ylmethyl)-benzamide]"
7,< 0.1,"COc1cc(C(=O)NC2CC(C)(C)N(C)C(C)(C)C2)ccc1Nc1ncc2c(n1)N(C1CCCC1)CC1(CC1)C(=O)N2C [compound 255, 4-(9-Cyclopentyl-5-methyl-6-oxo-6,7,8,9-tetrahydro-5H-spiro[pyrimido[4,5-b][1,4]diazepin-3,1′-cyclopropane]-2-ylamino)-3-methoxy-N-(1,2,2,6,6-pentamethyl-piperidin-4-yl)-benzamide]"
8,< 0.1,"COc1cc(C(=O)NCC(C)(C)CN(C)C)ccc1Nc1ncc2c(n1)N(C1CCCC1)CC1(CC1)C(=O)N2C [compound 256, 4-(9-Cyclopentyl-5-methyl-6-oxo-6,7,8,9-tetrahydro-5H-pyrimido[4,5-b][1,4]diazepin-3,1′-cyclopropane-2-ylamino)-N-(3-dimethylamino-2,2-dimethyl-propyl)-3-methoxy-benzamide]"
9,< 0.1,"COc1cc(C(=O)NCc2ccncc2)ccc1Nc1ncc2c(n1)N(C1CCCC1)CC1(CC1)C(=O)N2C [compound 258, 4(9-Cyclopentyl-5-methyl-6-oxo-6,7,8,9-tetrahydro-5H-pyrimido[4,5-b][1,4]diazepin-3,1′-cyclopropane-2-ylamino)-3-methoxy-N-pyridin-4-ylmethyl-benzamide]"
10,< 0.1,"COc1cc(C(=O)NCc2cccn2C)ccc1Nc1ncc2c(n1)N(C1CCCC1)CC1(CC1)C(=O)N2C [compound 259, 4-(9-Cyclopentyl-5-methyl-6-oxo-6,7,8,9-tetrahydro-5H-pyrimido[4,5-b][1,4]diazepin-3,1′-cyclopropane-2-ylamino)-3-methoxy-N-(1-methyl-1 H-pyrrol-2-ylmethyl)-benzamide]"
11,< 0.1,"COc1cc(C(=O)NC2CCCC2)ccc1Nc1ncc2c(n1)N(C1CCCC1)CC1(CC1)C(=O)N2C [compound 260, N-Cyclopentyl-4-(9-Cyclopentyl-5-methyl-6-oxo-6,7,8,9-tetrahydro-5H-spiro[pyrimido[4,5-b][1,4]diazepin-3,1′-cyclopropane]-2-ylamino)-3-methoxy-benzamide]"
12,< 0.1,"CCc1cc(C(=O)NC2CCN(C)CC2)ccc1Nc1ncc2c(n1)N(C1CCCC1)CC1(CC1)C(=O)N2C [compound 261, 4-(9-Cyclopentyl-5-methyl-6-oxo-6,7,8,9-tetrahydro-5H-spiro(pyrimido[4,5-b][1,4]diazepin-3,1′-cyclopropane]-2-ylamino)-3-ethyl-N-(1-methyl-piperidin-4-yl)-benzamide]"
13,< 0.1,"COc1cc(C(=O)NC2CCN(C)CC2)ccc1Nc1ncc2c(n1)N(CC1CC1)CC1(CC1)C(=O)N2C [compound 262, 4-(9-Cyclopropylmethyl-5-methyl-6-oxo-6,7,8,9-tetrahydro-5H-pyrimido[4,5-b][1,4]diazepin-3,1′-cyclopropane-2-ylamino)-3-methoxy-N-(1-methyl-piperidin-4-yl)-benzamide]"
14,< 1,"COc1ccc(C(=O)NCCOCCO)cc1Nc1ncc2c(n1)N(C1CCCC1)CCC(=O)N2C [compound 263, 3-(9-Cyclopentyl-5-methyl-6-oxo-6,7,8,9-tetrahydro-5H-pyrimido[4,5-b][1,4]diazepin-2-ylamino)-N-[2-(2-hydroxy-ethoxy)-ethyl]-4-methoxy-benzamide]"
15,< 1,"CONC(=O)c1ccc(OC)c(Nc2ncc3c(n2)N(C2CCCC2)CCC(=O)N3C)c1 [compound 264, 3-(9-Cyclopentyl-5-methyl-6-oxo-6,7,8,9-tetrahydro-5H-pyrimido[4,5-b][1,4]diazepin-2-ylamino)-4,N-dimethoxy-benzamide]"
16,< 1,"COc1ccc(C(=O)NC2CCN(Cc3ccccc3)C2)cc1Nc1ncc2c(n1)N(C1CCCC1)CCC(=O)N2C (stereo not shown) [compound 265, N-(1-Benzyl-pyrrolidin-3-yl)-3-(9-cyclopentyl-5-methyl-6-oxo-6,7,8,9-tetrahydro-5H-pyrimido[4,5-b][1,4]diazepin-2-ylamino)-4-methoxy-benzamide]"
17,< 1,"COc1ccc(C(=O)NCCN2CCOCC2)cc1Nc1ncc2c(n1)N(C1CCCC1)CCC(=O)N2C [compound 266, 3-(9-Cyclopentyl-5-methyl-6-oxo-6,7,8,9-tetrahydro-5H-pyrimido[4,5-b][1,4]diazepin-2-ylamino)-4-methoxy-N-(2-morpholin-4-yl-ethyl)-benzamide]"
18,< 1,"COc1ccc(C(=O)NCCc2c[nH]cn2)cc1Nc1ncc2c(n1)N(C1CCCC1)CCC(=O)N2C [compound 267, 3-(9-Cyclopentyl-5-methyl-6-oxo-6,7,8,9-tetrahydro-5H-pyrimido[4,5-b][1,4]diazepin-2-ylamino)-N-[2-(1H-imidazol-4-yl)-ethyl]-4-methoxy-benzamide]"
19,< 1,"COc1ccc(C(=O)NCc2cccn2C)cc1Nc1ncc2c(n1)N(C1CCCC1)CCC(=O)N2C [compound 268, 3-(9-Cyclopentyl-5-methyl-6-oxo-6,7,8,9-tetrahydro-5H-pyrimido[4,5-b][1,4]diazepin-2-ylamino)-4-methoxy-N-(1-methyl-1H-pyrrol-2-ylmethyl)-benzamide]"
